Measurements from DBAASP.
Values after ≈ are worked out from the molar mass of the structure shown. One block for each molecule: values may come before it.

What was measured:
Test in all cases: ≥ marks a high value that may be exact or a test limit, other limits are often not marked, values filed in µg/mL are converted to µM
[1] = test system: Candida parapsilosis CGMCC 2.3989
[2] = test system: Staphylococcus aureus ATCC 25923
[3] = test system: Candida tropicalis CGMCC 2.1975
[4] = test system: Lactiplantibacillus plantarum 8014
[5] = test system: Staphylococcus epidermidis ATCC 12228
[6] = test system: Staphylococcus aureus ATCC 29213
[7] = test system: Lacticaseibacillus rhamnosus 7469
[8] = test system: Candida albicans CGMCC 2.2086
[9] = test system: Staphylococcus aureus ATCC 43300
[10] = test system: Acinetobacter baumannii ATCC 19606
[11] = test system: Staphylococcus aureus JE2
[12] = test system: Cryptococcus neoformans var. grubii H99
Escherichia coli K-12 = test system: Escherichia coli K-12
[13] = test system: Escherichia coli ATCC 25922
[14] = test system: Klebsiella pneumoniae ATCC 700603
[15] = test system: Pseudomonas aeruginosa ATCC 27853
[16] = test system: Candida albicans ATCC 90028
[17] = test system: Escherichia coli DH5alpha
[18] = test system: Pseudomonas aeruginosa NBRC 13275
[19] = test system: Staphylococcus aureus NBRC 13276
[20] = test system: Pseudomonas aeruginosa 253
[21] = test system: Pseudomonas aeruginosa 919
[22] = test system: Pseudomonas aeruginosa PAO1
[23] = test system: Pseudomonas aeruginosa 910
[24] = test system: Pseudomonas aeruginosa H103
Candida albicans = test system: Candida albicans
Escherichia coli UB1005 = test system: Escherichia coli UB1005
[25] = test system: Enterococcus faecalis ATCC 29212
[26] = test system: Salmonella enterica serovar Typhimurium
[27] = test system: Staphylococcus epidermidis
[28] = test system: Escherichia coli ATCC 11775
[29] = test system: Escherichia coli ATCC 43827
[30] = test system: Escherichia coli ATCC 35218
Escherichia coli ESBL 4 = test system: Escherichia coli ESBL 4
Escherichia coli ESBL = test system: Escherichia coli ESBL

- MIC [9]: 2.42 µM (≈ 4 µg/mL)
- MIC [10]: 9.67 µM (≈ 16 µg/mL)
- MIC [11]: 4.83 µM (≈ 8 µg/mL)
- MIC [12]: 4.83 µM (≈ 8 µg/mL)
- MIC (Escherichia coli K-12): 9.67 µM (≈ 16 µg/mL)
- MIC [13]: > 19.3 µM
- MIC [14]: > 19.3 µM
- MIC [15]: > 19.3 µM
- MIC [16]: 19.3 µM (≈ 32 µg/mL)
SMILES: CC[C@H](C)[C@H](NC(=O)[C@@H](NC(=O)[C@H](CO)NC(=O)[C@H](C)NC(=O)[C@@H](NC(=O)[C@H](CCCCN)NC(=O)[C@H](CCCCN)NC(=O)[C@@H](NC(=O)[C@@H](NC(=O)[C@H](CC(=O)O)NC(=O)[C@H](Cc1c[nH]c2ccccc12)NC(=O)[C@H](CC(C)C)NC(=O)CN)C(C)C)[C@@H](C)CC)C(C)C)C(C)C)C(=O)NCC(=O)NCC(=O)N[C@@H](CC(C)C)C(=O)O [GLWDVIKKVASVIGGL]

- MIC [2]: 10.9 µM (≈ 16 µg/mL)
- MIC [20]: ≥ 32 µM
- MIC [24]: 5.46 µM (≈ 7.99 µg/mL)
- MIC (Candida albicans): 5.46 µM (≈ 7.99 µg/mL)
- MIC [21]: 16 µM (≈ 23.4 µg/mL)
- MIC [22]: 32 µM (≈ 46.8 µg/mL)
- MIC (Escherichia coli UB1005): 2.73 µM (≈ 4 µg/mL)
- MIC [23]: ≥ 32 µM
- MIC [25]: 10.9 µM (≈ 16 µg/mL)
- MIC [26]: 5.46 µM (≈ 7.99 µg/mL)
- MIC [27]: 1.37 µM (≈ 2 µg/mL)
SMILES: CC[C@H](C)[C@H](NC(=O)[C@H](CCCN=C(N)N)NC(=O)[C@H](C)NC(=O)[C@H](CCCN=C(N)N)NC(=O)[C@@H](N)CCCN=C(N)N)C(=O)N[C@H](C(=O)N[C@H](C(=O)N[C@H](C(=O)N[C@@H](CCCN=C(N)N)C(=O)N[C@H](C(=O)N[C@@H](C)C(=O)N[C@@H](CCCN=C(N)N)C(N)=O)C(C)C)[C@@H](C)CC)C(C)C)C(C)C [RRARIVVIRVAR]

- MIC [9]: 2.32 µM (≈ 4 µg/mL)
- MIC [10]: 1.16 µM (≈ 2 µg/mL)
- MIC [11]: 9.28 µM (≈ 16 µg/mL)
- MIC [12]: 1.16 µM (≈ 2 µg/mL)
- MIC (Escherichia coli K-12): 18.6 µM (≈ 32 µg/mL)
- MIC [13]: 2.32 µM (≈ 4 µg/mL)
- MIC [14]: 4.64 µM (≈ 8 µg/mL)
- MIC [15]: > 18.6 µM
- MIC [16]: 18.6 µM (≈ 32 µg/mL)
SMILES: CC[C@H](C)[C@H](NC(=O)[C@@H](NC(=O)[C@H](CO)NC(=O)[C@H](C)NC(=O)[C@@H](NC(=O)[C@H](CCCCN)NC(=O)[C@H](CCCN=C(N)N)NC(=O)[C@@H](NC(=O)[C@@H](NC(=O)[C@H](CCCN=C(N)N)NC(=O)[C@H](Cc1c[nH]c2ccccc12)NC(=O)[C@H](CC(C)C)NC(=O)CN)C(C)C)[C@@H](C)CC)C(C)C)C(C)C)C(=O)NCC(=O)NCC(=O)N[C@@H](CC(C)C)C(=O)O [GLWRVIRKVASVIGGL]

More lines, now with the values behind:

SMILES: CC[C@H](C)[C@H](N)C(=O)N[C@@H](Cc1cnc[nH]1)C(=O)N[C@@H](Cc1cnc[nH]1)C(=O)N[C@H](C(=O)N[C@@H](Cc1cnc[nH]1)C(=O)N[C@@H](Cc1cnc[nH]1)C(=O)N[C@H](C(=O)N[C@H](C(=O)N[C@@H](Cc1cnc[nH]1)C(=O)N[C@@H](Cc1cnc[nH]1)C(=O)N[C@H](C(=O)N[C@@H](Cc1cnc[nH]1)C(=O)N[C@@H](Cc1cnc[nH]1)C(=O)N[C@H](C(=O)N[C@H](C(=O)N[C@@H](Cc1cnc[nH]1)C(=O)N[C@@H](Cc1cnc[nH]1)C(=O)N[C@H](C(=O)N[C@@H](Cc1cnc[nH]1)C(=O)N[C@@H](Cc1cnc[nH]1)C(=O)N[C@H](C(N)=O)[C@@H](C)CC)[C@@H](C)CC)[C@@H](C)CC)[C@@H](C)CC)[C@@H](C)CC)[C@@H](C)CC)[C@@H](C)CC)[C@@H](C)CC [IHHIHHIIHHIHHIIHHIHHI]
- MIC [1]: 2 µM (≈ 5.36 µg/mL)
- MIC [2]: > 64 µM
- MIC [3]: 1 µM (≈ 2.68 µg/mL)
- MIC [4]: ≥ 64 µM
- MIC [5]: > 64 µM
- MIC [6]: > 64 µM
- MIC [7]: ≥ 64 µM
- MIC [8]: 2 µM (≈ 5.36 µg/mL)

SMILES: CC(=O)N[C@@H](C)C(=O)N[C@@H](CCCCN)C(=O)N[C@@H](CCCCN)C(=O)N[C@@H](Cc1ccccc1)C(=O)NCC(=O)N[C@@H](CCCCN)C(=O)N[C@@H](C)C(=O)N[C@@H](Cc1ccccc1)C(=O)N[C@H](C(N)=O)C(C)C [AKKFGKAFV]
- MIC [17]: ≥ 200 µM
- MIC [18]: ≥ 200 µM
- MIC [19]: ≥ 400 µM

SMILES: CC[C@H](C)[C@H](NC(=O)[C@@H](N)Cc1ccccc1)C(=O)N[C@@H](CCCCN)C(=O)N[C@@H](Cc1c[nH]c2ccccc12)C(=O)N[C@@H](CCCN=C(N)N)C(=O)N[C@@H](CO)C(=O)N[C@@H](CCCN=C(N)N)C(=O)N[C@@H](Cc1c[nH]c2ccccc12)C(=O)N[C@@H](Cc1c[nH]c2ccccc12)C(=O)N[C@@H](CCCCN)C(=O)N[C@@H](CCCCN)C(=O)N[C@@H](CCCN=C(N)N)C(=O)N[C@H](C(N)=O)[C@@H](C)O [FIKWRSRWWKKRT]
- MIC [20]: 16 µM (≈ 30 µg/mL)
- MIC [21]: ≥ 32 µM
- MIC [22]: 4 µM (≈ 7.51 µg/mL)
- MIC [23]: 8 µM (≈ 15 µg/mL)

SMILES: CC[C@H](C)[C@H](NC(=O)[C@H](Cc1ccc(O)cc1)NC(=O)[C@H](CCC(N)=O)NC(=O)[C@H](CC(C)C)NC(=O)[C@H](C)NC(=O)[C@H](CCCCN)NC(=O)[C@H](CCCCN)NC(=O)[C@H](CCSC)NC(=O)[C@H](CCCCN)NC(=O)[C@H](CCCCN)NC(=O)[C@H](CCCCN)NC(=O)[C@@H](N)CCCN=C(N)N)C(=O)N[C@@H](CCCCN)C(=O)N[C@@H](CC(C)C)C(=O)N[C@@H](CC(C)C)C(=O)N[C@@H](CCCCN)C(=O)N[C@@H](CCC(=O)O)C(N)=O [RKKKMKKALQYIKLLKE]
- MIC [28]: ≥ 100 µM
- MIC [29]: 3 µM (≈ 6.44 µg/mL)
- MIC [13]: 25 µM (≈ 53.6 µg/mL)
- MIC [30]: 6 µM (≈ 12.9 µg/mL)
- MIC (Escherichia coli ESBL 4): ≥ 100 µM
- MIC [15]: 100 µM (≈ 215 µg/mL)
- MIC (Escherichia coli ESBL): 12.5 µM (≈ 26.8 µg/mL)

SMILES: CC[C@H](C)[C@H](NC(=O)[C@H](Cc1ccc(O)cc1)NC(=O)[C@H](CCC(N)=O)NC(=O)[C@H](CC(C)C)NC(=O)[C@H](C)NC(=O)[C@H](CCCCN)NC(=O)[C@H](CCCCN)NC(=O)[C@H](CCSC)NC(=O)[C@@H](N)CCCCN)C(=O)N[C@@H](CCCCN)C(=O)N[C@@H](CC(C)C)C(=O)N[C@@H](CC(C)C)C(=O)N[C@@H](CCCCN)C(=O)N[C@@H](CCC(=O)O)C(N)=O [KMKKALQYIKLLKE]
- MIC [28]: ≥ 100 µM
- MIC [29]: 25 µM (≈ 43.3 µg/mL)
- MIC [13]: 100 µM (≈ 173 µg/mL)
- MIC [30]: 25 µM (≈ 43.3 µg/mL)
- MIC (Escherichia coli ESBL 4): ≥ 100 µM
- MIC [15]: > 100 µM
- MIC (Escherichia coli ESBL): ≥ 100 µM
